Measurements: patent publication US20120046292A1, “[…] COMPOUND” (ASTELLAS PHARMA INC., priority 2009, published 2012)

How the values were obtained:
human DGAT1 (hDGAT1) = target: T1, human DGAT1 (hDGAT1) (Homo sapiens, UniProt O75907); experiment: DGAT1 inhibitory activity test (hDGAT1-expressing Sf9 cell microsome, [14C]oleoyl-CoA, FlashPlate); assay type: biochemical; settings: test substance 1, 10, 100, 1000 nM, linear regression
T1 construct: made in house; host or cells: Sf9 insect cells (Bac-to-Bac baculovirus, pFastBac1); microsomal fraction
T1 sequence (O75907 1-488): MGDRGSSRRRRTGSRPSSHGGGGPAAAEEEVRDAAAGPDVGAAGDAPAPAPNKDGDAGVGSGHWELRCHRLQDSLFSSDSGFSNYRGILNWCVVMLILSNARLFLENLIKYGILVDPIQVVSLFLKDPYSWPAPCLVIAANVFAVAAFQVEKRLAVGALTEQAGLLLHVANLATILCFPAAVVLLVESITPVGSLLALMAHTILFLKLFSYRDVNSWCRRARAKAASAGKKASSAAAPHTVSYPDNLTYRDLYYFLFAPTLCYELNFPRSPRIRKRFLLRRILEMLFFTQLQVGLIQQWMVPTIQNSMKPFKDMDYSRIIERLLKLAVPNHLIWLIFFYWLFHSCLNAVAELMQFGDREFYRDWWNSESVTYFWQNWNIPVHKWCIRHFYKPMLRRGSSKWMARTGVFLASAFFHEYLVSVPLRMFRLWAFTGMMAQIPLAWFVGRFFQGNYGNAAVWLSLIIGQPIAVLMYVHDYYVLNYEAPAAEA
Description: (1) Production of Bacmid-hDGAT1
A base sequence encoding a human DGAT1 (hDGAT1) (1467 bases of CDS in Genbank Accession No. NM_012079) was cloned and ligated to pFastBac™1 (Invitrogen) to produce a pFastBac1-hDGAT1. From this plasmid, an engineered baculovirus liquid (Bacmid-hDGAT1) was prepared using a Bac-to-Bac (registered trademark) Baculovirus Expression System (Invitrogen).
(2) Preparation of Sf9 Cell-Derived DGAT1-Expressing Microsomal Fraction
Sf9 cells were seeded into a 225-cm^2 Flask Angled Neck (CORNING) to a confluency of 80%, and statically cultured in an incubator at 27° C. using an EX-CELL™ 420 INSECT SERUM-FREE MEDIUM (SAFC Biosciences, Inc.). After 24 hours, the culture medium was taken out, and a liquid obtained by diluting 1.67 mL of an engineered baculovirus medium (Bacmid-hDGAT1) with 3.33 mL of an EX-CELL™ 420 INSECT SERUM-FREE MEDIUM was added thereto, and the resultant was cultured under shaking in an incubator at 27° C. for 1 hour. Thereafter, 25 mL of an EX-CELL™ 420 INSECT SERUM-FREE MEDIUM was added thereto, followed by culturing in an incubator at 27° C. for 72 hours. The infected cells were harvested, diluted with 1.5 mL of a buffer A (40 mM phosphate buffer (pH 7.2) including 100 mM sucrose and 50 mM KCl) containing a Complete Protease Inhibitor Cocktail (Roche Diagnostics K. K.), and then subjected to sonication using a SONIFER 250 (BRANSON Ultrasonic Corp.). This suspension was centrifuged at 10000×g for 5 minutes and the supernatant was recovered. This supernatant was centrifuged at 100000×g for 60 minutes and the resulting precipitate was dissolved in 600 μL of a buffer A and then subjected to sonication again, to prepare a suspension. This suspension was taken as a hDGAT1-expressing Sf9 cell microsome.
(3) DGAT1 Activity Measurement
For the DGAT1 activity, a test substance in DMSO (final DMSO concentration 2%) in which 100 mM Tris-HCl (pH 8.0), 2 mM MgCl2, 0.01% BSA, a hDGAT1-expressing Sf9 cell microsome, 200 μM dioleoyl glycerol or dipalmitoyl glycerol, 8.9 μM [^14C] oleoyl-CoA, and 1.68% acetone were added to a phospholipid FlashPlate (PerkinElmer Life Science). The reaction was carried out at 30° C. for 60 minutes, and then twice the amount (100 μL), relative to the reaction liquid, of a mixture of isopropyl alcohol:0.1 M carbonate buffer (pH 9.0) at a ratio of 1:1 was added thereto to stop the reaction. The next day, the count was measured with a TopCount microplate scintillation counter (PerkinElmer Life Science).
The count without addition of the test substance was taken as a control (TG with addition of DMSO). The count without addition of the test substance and the microsome was taken as a Blank TG. The DGAT1 inhibitory rate of the test substance was calculated by the following calculation equation:
Inhibitory Rate (%)=(TG with addition of test substance−Blank TG)÷(TG with addition of DMSO−Blank TG)×100
The DGAT1 inhibitory rates were calculated when the concentrations of the test substance in the reaction liquid were 1, 10, 100, and 1000 nM. Linear regression was performed using the inhibitory rates obtained, and a test substance concentration (IC50) required to inhibit the DGAT1 activity by 50% was calculated by an SAS 8.2 software package (SAS Institute Japan, Ltd., Tokyo, Japan).

male C57BL/6J mice = experiment: Inhibitory action on increase in triglyceride (TG) by fat administration; assay type: in vivo; settings: administration amount 0.3 mg/kg; fat (intralipid 20%, 10 mL/kg) orally 20 hours after dosing; plasma TG 2 hours after fat; control 0.5% methyl cellulose group
Description: 8- to 15-week male C57BL/6J mice were fasted for four hours, and the test substances were administered to the mice. The test substance was administered after suspending it in a 0.5% methyl cellulose solution. After 20 hours, fat (intralipid 20%, Terumo (Fresenius), 10 mL/kg) was orally administered thereto. Immediately before and after 2 hours from administration of the fat, blood was collected from the tail vein to obtain plasma. For measurement of the TG in plasma, a TG increase in the plasma by fat administration was calculated using a Triglyceride E Test Wako (Wako Pure Chemical Industries Ltd.). Using the TG increase in the plasma in a group to which 0.5% methyl cellulose had been administered as a control, the TG increase inhibitory rate when the test substance had been administered was determined.

DIO mice = experiment: Anti-obesity action in DIO mice; assay type: in vivo; settings: oral, once per day, administration period 2 weeks, 1 mg/kg; high-fat diet C57BL/6J mice; solvent group weight increase = 100%
Description: High-fat diet formula (Research Diet D12492, 60 kcal % fat) were given to 9-week male C57BL/6J mice. For acclimatization of the mice, the solvent used in the test from the 4th week was administered thereto. From the 5th week, the test substance was orally administered once or twice daily. The test substance was administered after suspending it in a 0.5% methyl cellulose solution. Administration was performed repeatedly for 2 or 4 weeks, and variation in the weights due to the test substance administration was observed. By taking the increase in the weight in the group to which the solvent had been administered within a test period as 100%, the weight increase inhibitory rate of the test substance was calculated.

| IC50 (human DGAT1 (hDGAT1)) [nM] | SMILES | TG increase inhibitory rate (male C57BL/6J mice) [%] | weight increase inhibitory rate (DIO mice) [%] |
| --- | --- | --- | --- |
| 21 | CCOc1ccc(C(=O)NCCNC(=O)c2ccc(O[C@H]3CC[C@@H](C(=O)O)CC3)cc2)cc1 [Example 18] | – | – |
| 1.7 | O=C(NCCNC(=O)c1sc2ccccc2c1Cl)c1ccc(O[C@H]2CC[C@@H](C(=O)O)CC2)cc1 [Example 469] | 109 | – |
| 5.2 | O=C(NCCNC(=O)c1ccc2ccccc2c1)c1ccc(O[C@H]2CC[C@@H](C(=O)O)CC2)cc1 [Example 83] | – | – |
| 5.2 | O=C(NCCNC(=O)N1CCC(c2ccc(Cl)cc2)CC1)c1ccc(O[C@H]2CC[C@@H](C(=O)O)CC2)c(F)c1F [Example 480] | – | – |
| 14 | CCOc1ccc(C(=O)NCCNC(=O)c2ccc(O[C@H]3CC[C@@H](C(=O)O)CC3)nc2)cc1Cl [Example 245] | – | – |
| 0.1 | O=C(NCCNC(=O)c1ccc(O[C@H]2CC[C@@H](C(=O)O)CC2)cc1F)c1cc2cc(F)ccc2s1 [Example 531] | – | – |
| 20 | O=C(O)CC1CCC(c2ccc(C(=O)NCCNC(=O)c3ccc(Cl)cc3)cc2)CC1 (stereo not drawn) [Example 6, {4-[4-({2-[(4-chlorobenzoyl)amino]ethyl}carbamoyl)phenyl]cyclohexyl}acetic acid] | – | – |
| 2.7 | O=C(NCCNC(=O)c1ccc(O[C@H]2CC[C@@H](C(=O)O)CC2)cc1F)c1ccc2ccccc2c1 [Example 169] | 75 | – |
| 1 | O=C(NCCNC(=O)c1cc(F)c(O[C@H]2CC[C@@H](C(=O)O)CC2)cc1F)c1ccc2ccccc2c1 [Example 454] | 106 | 93 |
| 4.2 | O=C(NCCNC(=O)c1cc2cc(OC(F)(F)F)ccc2[nH]1)c1ccc(O[C@H]2CC[C@@H](C(=O)O)CC2)cc1 [Example 148] | – | – |
| 2.1 | CCCCCC12CCC(C(=O)NCCNC(=O)c3ccc(O[C@H]4CC[C@@H](C(=O)O)CC4)cc3)(CC1)CC2 [Example 20] | – | – |
| 14 | O=C(NCCNC(=O)c1ccc(O[C@H]2CC[C@@H](C(=O)O)CC2)cc1)Nc1ccccc1Cl [Example 56] | – | – |
| 8.1 | Cc1cc(O[C@H]2CC[C@@H](C(=O)O)CC2)ccc1C(=O)NCCNC(=O)c1ccc(C(F)(F)F)cc1 [Example 187] | – | – |
| 32 | O=C(O)CC1CCN(c2c(F)cc(C(=O)NCCNC(=O)c3sc4ccccc4c3Cl)cc2F)CC1 [Example 604] | – | – |
| 1.6 | O=C(O)C[C@H]1CC[C@@H](Oc2cc(F)c(C(=O)NCCNC(=O)c3ccc4ccccc4c3)cc2F)CC1 [Example 571] | – | – |
| 5.8 | O=C(NCCNC(=O)c1ccc(C2CC2)c(Cl)c1)c1ccc(O[C@H]2CC[C@@H](C(=O)O)CC2)c(F)c1 [Example 135] | – | – |
| 5.6 | O=C(NCCNC(=O)c1ccc(O[C@H]2CC[C@@H](C(=O)O)CC2)c(F)c1F)c1ccc2ccccc2c1 [Example 300] | – | – |
| 3.8 | O=C(NCCNC(=O)c1ccc(O[C@H]2CC[C@@H](C(=O)O)CC2)c(F)c1F)c1ccc(Cl)s1 [Example 490] | 92 | 98 |
| 2.3 | O=C(NCCNC(=O)c1ccc(C2CC2)cc1)c1ccc(O[C@H]2CC[C@@H](C(=O)O)CC2)cc1 [Example 79] | 79 | – |
| 5.3 | Cc1cc(C(=O)NCCNC(=O)c2ccc(O[C@H]3CC[C@@H](C(=O)O)CC3)cc2)ccc1Cl [Example 106] | – | – |
| 9.9 | O=C(NCCNC(=O)c1ccc(F)c(C(F)(F)F)c1)c1ccc(O[C@H]2CC[C@@H](C(=O)O)CC2)cc1 [Example 82] | – | – |
| 0.4 | O=C(NCCNC(=O)c1ccc(O[C@H]2CC[C@@H](C(=O)O)CC2)cc1)c1ccc(Oc2ccc(F)cc2)cc1 [Example 63] | – | – |
| 6.7 | O=C(NCCNC(=O)c1c(F)cc(O[C@H]2CC[C@@H](C(=O)O)CC2)cc1F)c1ccc2ccccc2c1 [Example 299] | – | – |
